Measurements published in patent publication US11197856B2, “Bicyclic compounds and methods for their use in treating autism” (priority 2013, dated 2021).

What was measured:
[1] = test system: hippocampal LTP in MeCP2 deficient mice; assay: Hippocampal long-term potentiation (fEPSP slope) in MeCP2 deficient mice; type: in vivo; conditions: MeCP2 deficient mice at 9 weeks; vs saline
From the text: MeCP2 deficient mice have been previously reported to suffer from functional and ultrastructural synaptic dysfunction, significant impairment of hippocampus-dependent memory and hippocampal long-term potentiation (LTP) (Moretti et al. The Journal of Neuroscience. 2006. 26(1):319-327). To test the effects of the cG-2-AllylP treatment on synaptic function in the RTT model we compare hippocampal LTP in both vehicle and cG-2-AllylP-treated animals at 9 weeks of age. To do so, we measure the slope of the fEPSP as a % of baseline potential in neurons in slices of hippocampus from MeCP2 deficient mice treated with either saline or cG-2-AllylP.

NMDA NR1 subunit = assay: NMDA receptor-1 immunohistochemical staining of hippocampus; type: in vivo, male Wistar rats; conditions: CA1 and CA3; post-treatment
Description: (§1) Aged rats (male Wistar rats, 18-20 months old) were divided into four groups: two vehicle-treated (groups 1 and 3) and two G-2-AllylP treated (groups 2 and 4) (all groups n=6-8). Cyclic G-2-AllylP was synthesised by the Department of Medicinal Chemistry and dissolved in normal saline before the treatment. On day 1 a single dose of cyclic G-2-AllylP was given centrally (20 ng/animal, i.c.v.) to the animals in groups 2 and 4; saline was administered to groups 1 and 3. The memory tests using Novel Object Recognition Test started either on day 3 (groups 1 and 2) or 24 (groups 3 and 4) after the treatment. On the completion of the NORT, the rats were killed with an overdose of sodium pentobarbital and were perfused transcardially with normal saline followed by 10% formalin. Tissues collected at day 7 in groups 1 and 2, and at day 28 from groups 3 and 4. The brains were kept in the same fixative for a minimum of 2 days before being processed using a standard paraffin embedding procedure. Briefly, small blocks (10×10×3 mm) of tissue were fixed for up to 24 hrs. The blocks were then infiltrated and embedded with paraffin and cut in ribbons and mounted on slides. Slides were then stored until immunostaining was commenced. Synaptogenesis in brain tissue was examined using immunohistochemical staining. […]

[2] = test system: Fmr1-K02 mice and wildtype (WT) littermates; assay: Inspection of animals for toxicity in Fragile X studies; type: in vivo; conditions: fmr1-knockout and wild-type mice
Description: Experiments were conducted in accordance with the United Kingdom Animals (Scientific Procedures) Act of 1986. Fmr1-K02 mice and wildtype (WT) littermates were generated on a C57BL/6J background and repeatedly backcrossed onto a C57BL/6J background for more than eight generations and send to Chile by the Jackson's laboratory. Mice were grouping housed (4-6 per cage) and all animals were provided with ad libitum food and water unless otherwise stated. Mice were maintained on a 12 h light/dark cycle (lights off 19:00 to 7:00) in a temperature-controlled environment (21±1° C.).
Animals were inspected for differences in coat appearance, whether any piloerection is present, eye condition (runny eyes or porphyria, ptosis) gait appearance, tremor, tail tone, reactivity to handling, etc.

AMPA receptors GluR1 = assay: AMPA glutamate receptor-1 immunohistochemical staining of hippocampus; type: in vivo, male Wistar rats
Description: as §1, with “slides.” for “slides. Slides were then stored until immunostaining was commenced. Synaptogenesis in brain tissue was examined using immunohistochemical staining.”
The following antibodies were used: • i) primary rabbit antibody to NMDA NR1 subunit, at 1:200 concentration in buffer, incubated for 48 hrs (Chemicon—AB1516), followed by Sigma fluorescent secondary antibody (alexaFluor 394), at 1:200 dilution, incubated for 24 hours at 40C. • ii) primary antibody to AMPA GluR1 subunit, at 1:30 concentration in buffer, incubated for 48 hrs (Chemicon—AB1504) followed by 3,3′-diaminobenzidine (DAB) at 1:200 dilution, incubated for 24 hours at 40C. • iii) Primary antibody to mSynaptophysin (Sigma—S5768), at 1:200 concentration in buffer, followed by DAB at 1:200 dilution, incubated for 24 hours at 40C. • iv) Primary antibody to rKrox-24 (Santa Cruz—catalogue number SC-189) at 1:200 concentration in the buffer, followed by anti-rabbit secondary antibody at concentration of 1:200 dilution, incubated for 24 hours at 40C. • y) Antibodies were detected using light microscopy. […]

[3] = test system: fmr1-knockout mice and wild-type mice; assay: Elevated Plus Maze; type: in vivo
From the text: In another study, we used an “Elevated Plus Maze.” The Elevated Plus Maze test is one of the most widely used tests for measuring anxiety-like hyperactivity in mice. The test is based on the natural aversion of mice for open and elevated areas, as well as on their natural spontaneous exploratory behavior in novel environments. FIG. 23 depicts a photograph of a device used in this study. The apparatus consists of two open arms and two closed arms, crossed in the middle perpendicularly to each other, and a center area. The open arms are more exposed and therefore create more anxiety in the mice. Mice therefore spend more time in the closed arms and visit them more frequently. Mice were given access to all of the arms and were allowed to move freely between them. The number of entries into the open arms, the time spent in the open arms, and time spent in the center were used as indices of open space-induced anxiety.

[4] = test system: neurons in the CA3 region of the hippocampus; assay: Neuron soma size in the hippocampus; type: in vivo, mice
Description: We also measure the effect of cG-2-AllylP treatment on neuron soma size in the hippocampus. Mice are treated with cG-2-AllylP as described above for locomotor activity.

C=CC[C@]12CCCN1C(=O)CNC2=O [cG-2-AllylP, (8aS)-Allyl-hexahydropyrrolo[1,2-a]pyrazine-1,4-dione]
slope of fEPSP (hippocampal LTP) [1]: increases the slope of fESPS
changes in the NMDA receptors (NMDA NR1 subunit): not so pronounced
toxicity (coat, piloerection, eyes, gait, tremor, tail tone, reactivity) [2]: No instances of toxicity have been observed
number of AMPA receptors GluR1 (AMPA receptors GluR1; CA1 granular cell layer, day 28): significant increase in the number of AMPA receptors
number of AMPA receptors GluR1 (AMPA receptors GluR1; CA1 stratum oriens, day 28): significant increase in the number of AMPA receptors
number of AMPA receptors GluR1 (AMPA receptors GluR1; CA3, day 7 or 28, 20 ng/animal i.c.v.): no change in the number of receptors
time spent in the closed arm ([3]; fmr1-knockout animals): normalized the time spent in the closed arm
time spent in the open arms ([3]; fmr1-knockout animals): normalized the time spend in the open arms
time spent in the center ([3]; fmr1-knockout mice, p<0.001): significantly less time than vehicle-treated fmr1-knockout animals
time spent in the center ([3]; wild-type mice): slightly less time in the center than did vehicle-treated wild-type animals
time spent in the closed arm ([3]; wild-type mice): about the same amount of time in the closed arm
average soma size ([4]; KO animals): increases average soma size in KO animals
soma size ([4]; wild type animals): little or no effect on soma size in wild type animals
